{"source": "paper PMC4809600", "about": "“The Influence of Chronic Wound Extracts on Inflammatory Cytokine and Histatin Stability” (PLoS ONE, 2016)", "test_system": "dermal fibroblasts", "experiment": "Fibroblast wound healing scratch assay (migration)", "format": "cell-based, human", "conditions": "serum-free medium, histatins 5 μM, rhIL-6 125 ng/ml, rhCXCL8 250 ng/ml, (E0-E96)/(U0-U96), unexposed = 1; for Migration of dermal fibroblasts in scratch assay, 8 h exposure: 8 h exposure then 88 h without, read at 96 h; for Migration of dermal fibroblasts in scratch assay, 96 h exposure: continuous 96 h exposure", "description": "Dermal fibroblasts were isolated from healthy human abdominal skin from patients undergoing corrective abdominal plastic surgery. After removal of all adipose tissue, the skin was washed in PBS and incubated overnight on dispase II (Roche, Mannheim, Germany) at 4°C. The next day, epidermis was removed and discarded and the dermis was incubated in collagenase type II (Gibco, Life Technologies, Grand Island, USA)/dispase II in Hanks balanced salt solution (HBSS) (Gibco) at 37°C for 2–3 h. Fibroblast medium consisting of DMEM (Lonza, Verviers, Belgium) containing 1% ultroserG (UG) (Biosepra, Cergy-Saint-Christopher, France) and 1% penicillin-streptomycin (P/S) (Gibco) was added and the solution was passed through an 100 μm and 40 μm cell strainer (Becton Dickinson Falcon, Erembodegem, Belgium). A single cell suspension was seeded at ± 3.5 x 10^4 cells cm^2 and further cultured in fibroblast medium. Medium was changed twice a week and cultures were passaged when 90% confluent using 0.5mM EDTA/0.05% trypsin (Gibco). The cells were maintained at 37°C in a humidified atmosphere containing 5% CO2 and used for experiments at passage 3.\nA wound healing scratch assay was performed to determine the effect of histatins, rhIL-6 and rhCXCL8 on fibroblast migration. Confluent monolayers of fibroblasts in a 48-well plate (Costar, Corning Incorporated, New York, USA) were incubated with serum-free medium (DMEM containing 1% P/S and 0.1% bovine serum albumin (Sigma-Aldrich)) for 96 h to ensure minimum spontaneous migration. Next, a scratch was drawn with a disposable plastic pipette tip. Cultures were exposed to Hst1, cHst1, Hst2 and mad-Hst1 (all used at a concentration of 5μM), rhIL-6 (125 ng/ml), rhCXCL8 (250 ng/ml) and vehicle (H2O) in serum free medium. Two experimental set-ups were studied: i) cells were exposed only during the first 8 h to histatins and cytokines and then transferred to vehicle supplemented medium for an additional 88 h; or ii) cells were exposed to histatins and cytokines during the entire 96 h study period. Phase contrast micrographs were taken directly after drawing the scratch and after four days (96 h) of exposure. Data were analyzed using an image processing algorithm that has been described in detail in our previous work. The area of the scratch covered by migrating fibroblasts was determined using the following equation: (E0-E96)/(U0-U96), in which: E = exposure to a condition (IL-6, CXCL8 and histatins); U = unexposed (serum-free medium); E0 and U0 = area of the scratch at T = 0 h; E96 and U96 = area of the scratch (not covered with cells) after 96 h. In this way, in each exposed group (IL-6, CXCL8, histatins) the resurfaced area at 96 h is compared to its own 0 h time point and then set relative to the unexposed group (serum-free medium).", "key": {"[1]": {"conditions": "experiment 1, average of four replicates"}, "[2]": {"conditions": "experiment 2, average of four replicates"}, "[3]": {"conditions": "experiment 3, average of four replicates"}}}
{"substance": "cyclo(DNLPETGGDSHEKRHHGYRRKFHEKHHSHREFPFYGDYGSNYLY) [cHst1]", "values": [{"measurement": "Migration of dermal fibroblasts in scratch assay, 8 h exposure", "setting": "[1]", "value": 1.6}, {"measurement": "Migration of dermal fibroblasts in scratch assay, 8 h exposure", "setting": "[2]", "value": 1.24}, {"measurement": "Migration of dermal fibroblasts in scratch assay, 8 h exposure", "setting": "[3]", "value": 1.53}, {"measurement": "Migration of dermal fibroblasts in scratch assay, 96 h exposure", "setting": "[1]", "value": 1.46}, {"measurement": "Migration of dermal fibroblasts in scratch assay, 96 h exposure", "setting": "[2]", "value": 1.26}, {"measurement": "Migration of dermal fibroblasts in scratch assay, 96 h exposure", "setting": "[3]", "value": 1.33}]}
